# “And” between values parts separate entries of the source, which are not always exact repeats. Identical values can stand only once. Like-named read-outs stand apart in the source and are kept apart here.
# Legend:
# [1] = test system: α-syn overexpressing LUHMES cells; assay: LDH release into the culture medium as measure of α-syn-induced cell death; format: cell-based, human; details: for effect of specific PDE inhibitors on α-syn mediated toxicity (LDH release): FIG. 2B-I
# [2] = test system: α-syn; assay: Western blot quantification of α-syn bands; format: cell-based, human
# [3] = test system: α-syn transduced LUHMES neurons; assay: High-throughput screening of FDA-approved drugs for neuroprotective efficacy against α-syn (propidium iodide / Hoechst 33342 survival); format: cell-based, human; details: 3 μM and 10 μM, each in triplicates (six runs); six days after transduction
# [4] = test system: α-syn overexpressing LUHMES cells; assay: Number of vital DAPI-stained nuclei (cell counts); format: cell-based, human; details: 20 μM vinpocetine; α-syn with DMSO 57.0±3.4%
# Description: (§1) FIG. 3 The PDE1 inhibitor vinpocetine reduces cell death and 37 kDa α-syn specimen. (A) Cell counts of untransduced control cells (Ctrl, white bar), solvent treated α-syn transduced cells (black bar) and α-syn transduced cells with treated with different concentrations of vinpocetine (dark grey bars) confirmed the protective effect of vinpocetine. […] (C) Quantification of the CellEvent™ signal in untransduced control cells (Ctrl, left bar), α-syn transduced cells treated with solvent (black bar) and vinpocetine treated α-syn transduced cells (dark grey bar). (D) Representative Western blot of control cells (Ctrl), α-syn transduced cells without or with treatment vinpocetine in different concentrations. (E-H) Quantification of specific α-syn positive Western blot bands. […] The density of the 37 kDa band positively correlated with the LDH release (r^2=0.99, P<0.001, I) and negatively correlated with the number of vital cells (r^2=0.96, P<0.01, J). *P<0.05, **P<0.01, ***<0.001, n.s. not significant, one-way ANOVA with Tukey's HSD post-hoc test. Data are mean±s.e.m.
# (§2) To validate the data from the LDH measurement, we determined the number of vital 4′,6-diamidino-2-phenylindole (DAPI)-stained nuclei in untransduced control cells and α-syn overexpressing cells treated without or with ascending concentrations of vinpocetine. […]
# [5] = test system: caspase 3 and 7; assay: CellEvent fluorescence signal for activated caspase 3 and 7; format: cell-based, human; details: 20 μM vinpocetine; untransduced 1.0±0.2, α-syn with DMSO 74.8±5.7
# Description: as §1, §2
# [6] = test system: TH+ neurons in the substantia nigra; assay: Stereological counting of TH+ cells in the substantia nigra after intranigral rAAV injection; format: in vivo, mice
# Method: FIG. 5 Vinpocetine protects against α-syn-induced toxicity in vivo. (A) Experimental time flow. Grey bar: time point of stereotactical injection. (B) Experimental groups. Mice were injected stereotactically with either NaCl (control injection) or rAAV to overexpress luciferase (rAAV-Luc, control protein), or alpha-synuclein (rAAV-α-syn). Animals of each injection group were then randomized with a 1:1 allocation to be treated with once daily intraperitoneal injections of either solvent or vinpocetine for a 9-week period. (C) Representative images of the substantia nigra, immunostained for tyrosine hydroxylase (TH, grey) to identify dopaminergic neurons in solvent treated mice. Circle: area of cell loss upon α-syn overexpression. (D) Quantification of TH^+ cells on the control (Ctrl) side and the stereotactic injection side of solvent treated mice. On the injection side there was a significant loss of TH^+ cells (dark grey bar, right panel) after α-syn overexpression. (E) Images of the TH-immunostained substantia nigra of vinpocetine treated mice of the three injection groups. […] (F) Quantification of the number of TH^+ cells on the control (Ctrl) side and the stereotactic injection side of vinpocetine treated mice. […] Data are mean±s.e.m. Scale bars: 1 mm.
# To investigate the neurotoxicity of α-syn in vivo, recombinant adeno-associated viral (rAAV) vectors were stereotactically injected into the substantia nigra of 11 weeks old mice to overexpress human wild type α-syn (rAAV-α-syn; FIG. 5A). The injection of rAAV vectors expressing luciferase (rAAV-luc) or injections with NaCl were used as controls for the toxicity of viral-mediated protein overexpression or the injection procedure itself. The treatment started one week after the intranigral injections. Therefore, the mice of each injection group (NaCl, rAAV-luc, and rAAV-α-syn) were randomized to be treated by daily intraperitoneal injections with 25 mg vinpocetine in solvent or the corresponding volume of solvent alone (FIG. 5B). All animals survived the injection procedure and treatment period. A subgroup of animals were not treated and sacrificed three weeks after injection to determine the transduction rate for rAAV-α-syn and rAAV-luc (each n=3).
# To quantify the extent of neurodegeneration induced by rAAV mediated overexpression of α-syn, tyrosine-hydroxylase (TH) stainings of the substantia nigra and the striatum were performed. The number of TH^+ cells was determined by stereological counting. In the group of NaCl injected mice with solvent treatment, there was no significant difference in the number of TH^+ neurons between the injected (4108±54 cells) and the non-injected side (4168±92 cells, P=0.99, FIG. 5C, upper panel and FIG. 5D, blank columns).
# To determine the efficacy of vinpocetine in vivo, the number of TH^+ cells in the substantia nigra was determined in mice treated with daily injections of 25 mg/kg vinpocetine in solvent or the corresponding amount of solvent alone.
# [7] = test system: microglial marker ibal; details: mouse, in vivo
# [8] = vinpocetine treated mice, daily intraperitoneal 25 mg/kg
compound,measurement,setting,value
COc1ccc(Cc2nn3c([C@@H](CCCc4ccccc4)[C@@H](C)O)nc(C)c3c(=O)[nH]2)cc1OC [Bay60-7550],effect of specific PDE inhibitors on α-syn mediated toxicity (LDH release),[1]; different concentrations,did not have an effect
C[C@H](Cc1nc2c(cnn2-c2ccccc2Cl)c(=O)[nH]1)C(F)(F)F [Bay 73-6691],effect of specific PDE inhibitors on α-syn mediated toxicity (LDH release),[1]; different concentrations,did not have an effect
Nc1nc(-c2nn(Cc3ccccc3F)c3ncccc23)ncc1C1CC1 [BAY41-2272],relative LDH release compared to α-syn overexpressing control cells,[1]; 1 μM BAY41-2272,56.2±7.8%
same,"change of 37 kDa α-Syn band (Western blot, C20 antibody)","[2]; α-Syn-transduced neurons with forskolin or BAY41-2272, FIG. 4d,e",reduction of a 37 kDa α-Syn band
COc1ccc(C2CNC(=O)C2)cc1OC1CCCC1 (stereo not drawn) [Rolipram],effect of specific PDE inhibitors on α-syn mediated toxicity (LDH release),[1]; different concentrations,did not have an effect
CCCc1nn(C)c2c(=O)[nH]c(-c3cc(S(=O)(=O)N4CCN(C)CC4)ccc3OCC)nc12 [Sildenafil],effect of specific PDE inhibitors on α-syn mediated toxicity (LDH release),[1]; different concentrations,did not have an effect
OCCN(CCO)c1nc(N2CCCCC2)c2nc(N(CCO)CCO)nc(N3CCCCC3)c2n1 [dipyridamole],protective hit (Z-score above 2.5) in cell survival screening,[3],protective in all six runs
same,LDH level compared to α-syn overexpressing LUHMES cells with DMSO treatment,[1]; Five μM dipyridamole,77.0±5.1%
Cc1[nH]c(=O)c(C#N)cc1-c1ccncc1 [Milrinone],effect of specific PDE inhibitors on α-syn mediated toxicity (LDH release),[1]; different concentrations,did not have an effect
NC1=N[C@H](O)[C@H]2[C@H]3O[C@]4(O)O[C@@H]([C@@H](O)[C@@]2(N1)[C@@H]4O)[C@]3(O)CO [tetrodotoxin],effect of cation channel blockers on α-syn mediated toxicity (LDH release),[1],did not affect
vinpocetine,effect of specific PDE inhibitors on α-syn mediated toxicity (LDH release),[1]; different concentrations,significant protection in a dose dependent manner
same,cells survived (cell number compared to untransduced controls),[4],85.1±4.1%
same,relative CellEvent signal (activated caspase 3 and 7),[5],25.6±2.1
same,reduction of density of 37 kDa α-syn band compared to α-syn overexpressing cells treated with DMSO,[2]; 20 μM vinpocetine,52.2±6.6%
same,α-syn monomer band compared to untransduced controls,"[2]; 20 μM vinpocetine, DMSO treated α-syn cells 3.4±0.1-fold",5.1±0.4 fold
same,change in other α-syn bands,"[2]; vinpocetine treatment, FIG. 3G,H",no change
same,difference in number of TH+ neurons between solvent and vinpocetine treatment,[6]; NaCl and rAAV-luc injection groups,no difference
same,number of TH+ cells in the substantia nigra on the rAAV-α-syn injection side,"[6]; mice, daily intraperitoneal 25 mg/kg vinpocetine, 9-week period, solvent treated 2915±79",3870±141 cells and 3870±14 cells
same,protection against α-syn-induced cell death of TH+ neurons in vivo,"[6]; rAAV-α-syn injected mice, vinpocetine once daily intraperitoneal, 9 weeks, FIG. 5F",completely prevented α-syn-induced cell death
same,"number of TH+ cells on the injection side, NaCl injected mice",[6]; [8],3984±160 cells
same,"number of TH+ cells on the injection side, rAAV-luc injected mice",[6]; [8],3860±138 cells
same,"ibal-immunoreactivity, vinpocetine versus solvent treatment",[7],nor any differences between vinpocetine and solvent treatment
Cc1ccc([N+](=O)[O-])cc1S(=O)(=O)N(C)C [BRL 50481],effect of specific PDE inhibitors on α-syn mediated toxicity (LDH release),[1]; different concentrations,did not have an effect
COC(=O)C1=C(C)NC(C)=C(C(=O)OC(C)C)C1c1cccc2nonc12 (stereo not drawn) [isradipine],effect of cation channel blockers on α-syn mediated toxicity (LDH release),"[1]; different concentrations, FIG. 4A,B",did not affect

# Reference: patent US10918628B2, “Treatment of synucleinopathies” (Deutsches Zentrum für Neurodegenerative Erkrankungen e. V. …, priority 2016, dated 2021)
